Results as given in US20040097467A1 (priority 2002, published 2004).
Where two headings read alike, the source gives them in different places. Marks after values point to notes of the source that are not given here.

What was measured:
[1] = system: rabbits; details: injection or ingestion; cited from earlier work
[2] = system: postmenopausal women; details: injection, 50 mg twice weekly, 14 months; cited from earlier work
[3] = system: normal rodents; details: 1% added to normal diet (1.8% L-Arg content); cited from earlier work
[4] = system: Hearts of Male JCR: LA-cp Rats; assay: Parameters for Langendorf-perfused hearts: coronary flow, reactive hyperemia, bradykinin response; type: in vivo, rat; details: hearts of treated cp/cp rats; mean +/− SEM, 10 rats
From the text: Samples were taken from Langendorf-perfused hearts of JCR:LA-cp rats, control and arginine-treated.
(§1) The JCR:LA-cp rat is known to spontaneously develop the range of dysfunction and pathophysiology associated with Metabolic Syndrome in humans, e.g., obesity, profound insulin resistance, atherosclerosis with enhanced vascular contractility, and reduced vascular relaxation. In addition, obese male rats spontaneously develop ischemic lesions of the heart and are prone to stress-induced myocardial infarcts that can be fatal. Insulin resistance develops rapidly in young rats between the ages of 4 and 7 weeks and is highly correlated with the cardiovascular disease. […] Consistent with this observation is the presence of glomerular sclerosis in the older rats.
(§2) Male JCR: LA-cp rats are maintained on a reversed light cycle at 3 or 7 weeks of age and acclimatized over a 1-week period. This allows metabolic studies to be conducted under subdued light, during the active (dark) phase of their diurnal cycle.
(§3) The rats are divided into four groups and receive one of the three aforementioned feed concentrations or unsupplemented feed. The dosage is maintained on either a mg/kg body weight basis, in which case the diet is formulated on a weekly basis to ensure each rat receives the intended dose on a mg/kg basis, or the specified concentration in the feed. Food consumption and body weights are measured twice weekly.
(§4) The following parameters are measured: Food intake and body weights, ulin response (through a meal tolerance test), plasma total lipid profile, ratio n to creatinine, plasma levels of leptin, C-reactive protein and tumor necrosis TNFα), vascular function studies on aortic rings (contractility/relaxation), levels and activity of peroxisome proliferator-activated receptors (PPARs), osition of plasma cholesterol esters, liver, pancreas, muscle and adipose phatidylinositol-3 (PI-3) Kinase Signaling. Histological analysis are obtained sclerosis; islet morphometry; liver-hepatic damage and lipid content; and al electron microscopy for lipid).

[5] = system: Aortic Rings of JCR:LA-cp rats; assay: Relaxant response of aortic rings to acetylcholine; type: in vivo, rat; details: treated cp/cp rats; for Maximum Relaxation: acetylcholine, rings pre-contracted with phenylephrine; for Slope: logistic curve fit, acetylcholine relaxation
From the text: as §1, §2, §3
(§5) At 13 weeks of age, rats in the fed state are sacrificed under anesthesia with halothane in oxygen, and the following tissues are removed for processing as described below:
(§6) 1. Thoracic aorta for vascular function studies;
as §4

[6] = system: Aortic Rings of Male JCR: LA-cp Rats; assay: Contractile response of aortic rings to phenylephrine; type: in vivo, rat; details: for Slope: logistic curve fit, phenylephrine contraction, treated cp/cp rats; for Maximum contraction: phenylephrine, aortic rings from treated cp/cp rats, mean +/− SEM
From the text: as §1, §2, §3, §5, §6, §4

[7] = system: ovariectomized rats; details: oral; cited from earlier work
[8] = system: JCR:LA-cp rat
From the text: as §1, §2, §3
At 12 weeks of age, rats fast over the light (non-active) phase. A fasting blood sample is obtained from the tail and a standardized meal tolerance test (MTT) is performed. Following a 2-day recovery period, the rats are placed in a metabolism cage for 24 hours for the collection of urine.
as §5, §4

[9] = human volunteer, 8 g/l solution, three one-cup servings daily for three days, third-day 24-hour urine
[10] = system: subject at risk for bone loss; details: 500 mg total per day
[11] = system: overweight subject; details: 500 mg total per day, after several weeks
[12] = treatment begun at 4 weeks of age, at 12 weeks, vs control group

For `C[Si](O)(O)O` [monomethyltrisilanol], the “intimal thickening and fragmentation of arterial elastic fibers” value [1] is given as “prevented” and the “increase of femoral density (average)” value [2] is given as 4.7%.
In the case of `Cl.N=C(N)NCCC[C@H](N)C(=O)O` [arginine HCl, reference compound], the thymic weight [3] is listed as “increased”, the “Bradykinin response Maximum response relative flow” value [4] is listed as 1.48 +/− 0.55 and the Coronary flow [4] is listed as 10.5 ± 0.3 mL/min. For the same molecule, the Reactive hyperemia [4] was 170 +/− 11** %, the “Maximum Relaxation” value [5] was 90.4 +/− 3.5% and the Slope [5] was −0.673 +/− 0.093. The Slope [6] was −1.03 +/− 0.14 and the Maximum contraction [6] was 1.84 ± 0.07 g.
For orthosilicic acid, the bone formation rate [7] is listed as “increased” and the bone turnover [7] is listed as “slowed”.
With `N=C(N)NCCC[C@H](N)C(=O)O.O[Si](O)(O)O` [arginine silicate] the “level of silica (% SiO2)” value (aqueous solution 0.5 g/l) was 17.5%, the “level of silica (% SiO2)” value (aqueous solution 10 g/l, 1 hour) was 11.8% and the “level of silica (% SiO2)” value (aqueous solution 10 g/l, 2 hours) was 10.8%. The “level of silica (% SiO2)” value (aqueous solution 10 g/l, 24 hours) was 9.2%, the “level of silica (% SiO2)” value (aqueous solution 10 g/l, time 0) was 17.5% and the “bradykinin response (FIG. 1)” value ([8]; coronary blood flow, FIG. 1) was “improved”. For the same molecule, the “metabolic syndrome and cardiovascular disease (CVD) symptoms” value ([8]; dietary supplementation, compared to controls) was “reduced”, the “increases in serum insulin concentration” value [8, 12] was “reduced” and the “increases in urinary albumin excretion” value [8, 12] was “reduced”. The body weight ([8]; vs control animals) was “reduction”, the “coronary risk lipids and lipoprotein concentrations” value ([8]; vs control animals) was “reduction” and the endothelial function ([8]; vs control animals) was “improved”. The “gene expression and PPAR (α, γ) activity” value ([8]; vs control animals) was “enhanced”, the glomerular sclerosis ([8]; vs control animals) was “decreased” and the inflammatory markers ([8]; vs control animals) was “decreased levels”. For the same molecule, the insulin resistance ([8]; vs control animals) was “reduction”, the insulin signaling pathway ([8]; vs control animals) was “enhanced” and the ischemic lesions ([8]; vs control animals) was “reduced”. For the same molecule, the islet cell hyperplasia ([8]; vs control animals) was “lower levels”, the sensitivity to insulin ([8]; vs control animals) was “greater” and the “stress induced myocardial infarct” value ([8]; vs control animals) was “reduced”. The “structural remodeling (e.g., enlargement of the heart)” value ([8]; vs control animals) was “reduced”, the tolerance to glucose ([8]; vs control animals) was “greater” and the vascular contractility ([8]; vs control animals) was “decreased”. The vascular relaxation ([8]; vs control animals) was “increased”, the “Bradykinin response Maximum response relative flow” value [4] was 1.95 +/− 0.40 and the Coronary flow [4] was 10.8 ± 0.4 mL/min. For the same molecule, the Reactive hyperemia [4] was 186 +/− 25.3* %, the “Maximum Relaxation” value [5] was 97.1 +/− 4.0% and the Slope [5] was −0.729 +/− 0.105. For the same molecule, the “urinary silicon output vs baseline” value [9] was “increased more than tenfold”, the Slope [6] was −1.01 +/− 0.17 and the Maximum contraction [6] was 1.44 ± 0.07 g.
In the case of `NCCCC[C@H](N)C(=O)O.O[Si](O)(O)O` [lysine silicate], the “intimal thickening and fragmentation of arterial elastic fibers” value [1] is listed as “prevented”.
For arginine silicate, the bone mineral density ([10]; after several months) was “optimal level of bone density”, the “serum N-telopeptide of collagen type I and osteocalcin (markers of bone resorption and formation)” value ([10]; after several weeks) was “returned to their normal ranges” and the “blood lipid concentrations (cholesterol and triglycerides)” value [11] was “reduced”. For the same molecule, the glucose metabolism [11] was “normalized”.
